Consider 25 compounds from patent US20100273772A1, “Bisaryl Alkynylamides as Negative Allosteric Modulators of Metabotropic Glutamate Receptor 5 (MGLUR5)” (Wyeth LLC, priority 2009, published 2010).

Experiment [1] concerns the target T1, metabotropic glutamate receptor 5 (Rattus norvegicus, UniProt P31424).
T1 construct: expressed in transfected cells; host or cells: HEK-293
Put plainly: FLIPR Calcium 3 fluorescence-based functional assay of intracellular calcium, mGluR5 antagonist activity. The settings on record: inhibition of glutamate (EC90, ~50 uM) stimulated calcium levels, mGluR5 HEK-293 cells; read-out: mGluR5 FLIPR MP Antagonist DR IC50. It counts as cell-based. The source says:
(§1) where [L]=concentration of free radioligand and Kd=dissociation constant of radioligand for the receptor. TITLE: Identification of metabotropic glutamate receptor 5 antagonists using a stable, sensitive fluorescence-based screening system PURPOSE: The aim of the research presented here was to develop a robust functional assay to measure changes in intracellular calcium, with the goal of identifying potent mGluR5 antagonists.
The FLIPR Calcium 3 Assay Kit is designed to work with many cell types, both adherent and non-adherent. Optimal cell conditions for the FLIPR Calcium 3 Assay Kit require the creation of a confluent cell monolayer before placing the plates in FLIPR or FlexStation. In general, we start with 50,000 mGluR5 HEK-293 cells/well for a 96-well plate. For adherent cells, seeding cells overnight with a plating volume of 100 μL/well worked for 96-well plates.
Remove cell plates from the incubator. Remove the supernatant medium. Add 180 ul of Loading Buffer to each well (for 96-well plates). HBSS buffer component B) pipette 100 mL of 10× Hank's Balanced Salt Solution and 20 mL of 1M Hepes buffer
Incubate cell plates for 1 hour at 37° C. and then keep the plates at room temperature until used.
After incubation, transfer the plates directly to FLIPR and begin the calcium assay as described in the FLIPR system manual. For a signal test, a starting average count of ˜10,000 is recommended. Recommended experimental setup parameters are as follows. Faster addition speeds can lead to better mixing of compounds and lower signal variance across the plate.
Test or reference compound is added to the 96-well plate (manually). […] Relative Fluorescence Units (RFUs) are recorded over a given time period (stated above) depending on the platform system used.
For antagonists, results are expressed as % inhibition of glutamate stimulated Calcium levels. IC50 values were calculated by Prism GraphPad using a 4-parameter logistic equation. IC50 values are calculated using GraphPad by fitting to a 1 site-model.

In another experiment the target is T2, rat mGluR5 receptor (Rattus norvegicus, UniProt P31424).
T2 construct: expressed in transfected cells; host or cells: HEK-293
The experiment is described as follows: [3H]-MPEP binding HEK-293 cell membranes expressing a rat mGluR5 receptor. The settings on record: displacement of 4 nM [3H]-MPEP, HEK-293 cell membranes expressing rat mGluR5, 60 minute at room temperature; read-out: mGluR5 Ligand Binding DR Ki. Here is the method:
TITLE: [^3H]-MPEP binding HEK-293 cell membranes expressing a rat mGluR5 receptor. PURPOSE: To identify high affinity compounds at the rat mGluR5 receptor based on their ability to displace the mGluR5 negative allosteric modulator, MPEP.
mGluR5 expressing HEK-293 cells are scraped off the plate, transferred to centrifuge tubes, and washed twice by centrifugation (2000 rpm for 10 min., 4° C.) in buffer (50 mM Tris pH 7.5). The resulting pellets are aliquoted and placed at −80° C. On the day of assay, the cells are thawed on ice, and resuspended in buffer. The binding assay is performed in a 96 well microtiter plate in a total volume of 250 μL. Non-specific binding is determined in the presence of 10 μM MPEP. Binding reaction includes a final radioligand [^3H]-MPEP concentration of 4 nM and 12-25 ug membrane protein per well. Following a 60 minute incubation at room temperature, the reaction is terminated by the addition of ice cold buffer and rapid filtration through a GF/B filter presoaked for 30 minutes in 0.5% PEI. Compounds are initially tested in a single point assay to determine percent inhibition at 10 μM. Subsequently, Ki values are determined for compounds defined to be active.
% inhibition and Ki values generated by GraphPad Prism and Excel Fit. IC50 values are calculated using GraphPad by fitting to a 1 or 2 site-binding model. Ki values are calculated from the apparent IC50 values using the Cheng-Prussof equation:
as §1

The structures appear in SMILES notation.

T2 sequence (P31424 21-1203): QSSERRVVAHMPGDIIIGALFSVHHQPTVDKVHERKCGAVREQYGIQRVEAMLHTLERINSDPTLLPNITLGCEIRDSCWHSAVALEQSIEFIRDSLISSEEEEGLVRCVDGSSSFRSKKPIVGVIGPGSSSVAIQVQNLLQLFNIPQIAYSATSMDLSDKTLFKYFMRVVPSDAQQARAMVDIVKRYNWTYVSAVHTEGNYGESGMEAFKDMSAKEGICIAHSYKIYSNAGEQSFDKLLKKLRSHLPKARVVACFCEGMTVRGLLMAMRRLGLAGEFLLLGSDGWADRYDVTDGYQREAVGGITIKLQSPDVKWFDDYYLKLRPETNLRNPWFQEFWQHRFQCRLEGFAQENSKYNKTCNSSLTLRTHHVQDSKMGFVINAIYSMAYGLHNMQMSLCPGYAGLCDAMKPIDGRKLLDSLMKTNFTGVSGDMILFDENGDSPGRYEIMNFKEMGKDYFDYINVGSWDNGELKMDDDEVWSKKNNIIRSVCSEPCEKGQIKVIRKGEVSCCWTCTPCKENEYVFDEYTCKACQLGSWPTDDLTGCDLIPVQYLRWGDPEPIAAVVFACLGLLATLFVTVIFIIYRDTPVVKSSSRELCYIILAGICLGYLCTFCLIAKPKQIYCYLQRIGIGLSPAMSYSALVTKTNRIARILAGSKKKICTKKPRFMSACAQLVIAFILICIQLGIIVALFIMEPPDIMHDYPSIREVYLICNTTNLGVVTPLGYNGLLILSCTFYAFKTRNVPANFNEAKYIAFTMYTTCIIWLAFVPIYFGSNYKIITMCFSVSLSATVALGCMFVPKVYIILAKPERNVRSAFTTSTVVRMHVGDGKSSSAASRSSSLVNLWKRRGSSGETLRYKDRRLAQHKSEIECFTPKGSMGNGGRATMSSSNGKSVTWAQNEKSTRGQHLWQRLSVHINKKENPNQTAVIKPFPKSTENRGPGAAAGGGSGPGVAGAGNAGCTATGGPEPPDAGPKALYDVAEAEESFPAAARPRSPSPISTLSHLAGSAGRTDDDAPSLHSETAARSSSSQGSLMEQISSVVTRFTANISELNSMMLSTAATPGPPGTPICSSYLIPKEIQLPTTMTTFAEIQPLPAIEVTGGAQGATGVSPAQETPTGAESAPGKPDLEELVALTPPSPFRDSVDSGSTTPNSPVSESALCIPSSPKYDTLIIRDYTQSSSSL
T1 sequence (P31424 21-1203): as above

What is called IC50 is the concentration needed to halve the response being measured. As usually defined, the Ki is a dissociation constant, usually derived from enzyme kinetics or from competition with a known ligand. With `COc1ccc(C(=O)N2CCc3nc(C)sc3C2)cc1C#Cc1ccccn1` [Example 48, 5-{[4-methoxy-3-(pyridin-2-ylethynyl)phenyl]carbonyl}-2-methyl-4,5,6,7-tetrahydro[1,3]thiazolo[5,4-c]pyridine], in experiment [1], the IC50 is 42 nM. At rat mGluR5 receptor, the inhibition constant (Ki) was 23 nM.
For `COc1ccc(C(=O)N2CCc3cccnc3C2)cc1C#Cc1ccccn1` [Example 50, 7-{[4-methoxy-3-(pyridin-2-ylethynyl)phenyl]carbonyl}-5,6,7,8-tetrahydro-1,7-naphthyridine], the half-inhibitory concentration (IC50) in experiment [1] turned out to be 17 nM. The inhibition constant (Ki) on rat mGluR5 receptor was found to be 17 nM.
As for `COc1ccc(C(=O)N2CCc3ncc(Cl)cc3C2)cc1C#Cc1ccccn1` [Example 51, 3-chloro-6-{[4-methoxy-3-(pyridin-2-ylethynyl)phenyl]carbonyl}-5,6,7,8-tetrahydro-1,6-naphthyridine], in experiment [1], the IC50 turned out to be 30 nM. In addition, the Ki on rat mGluR5 receptor worked out at 13 nM.
On the same counts, the results for `COc1ccc(C(=O)N2CCc3ncc(C(F)(F)F)cc3C2)cc1C#Cc1ccccn1` [Example 52, 6-{[4-methoxy-3-(pyridin-2-ylethynyl)phenyl]carbonyl}-3-(trifluoromethyl)-5,6,7,8-tetrahydro-1,6-naphthyridine] are 49 nM and 29 nM.
Take `COc1ccc(C(=O)N2CCc3[nH]ncc3C2)cc1C#Cc1ccccn1` [Example 53, 5-{[4-methoxy-3-(pyridin-2-ylethynyl)phenyl]carbonyl}-4,5,6,7-tetrahydro-1H-pyrazolo[4,3-c]pyridine]: the IC50 in experiment [1] came to 4 nM. For the same compound, the inhibition constant (Ki) at rat mGluR5 receptor worked out at 27 nM.
Regarding `COc1ccc(C(=O)N2Cc3cccnc3C2)cc1C#Cc1ccccn1` [Example 54, 6-{[4-methoxy-3-(pyridin-2-ylethynyl)phenyl]carbonyl}-6,7-dihydro-5H-pyrrolo[3,4-b]pyridine], the IC50 in experiment [1] stood at 8 nM. In addition, the Ki at rat mGluR5 receptor came out at 26 nM.
On the same counts, the results for `COc1ccc(C(=O)N2CCOc3ccccc3C2)cc1C#Cc1ccccn1` [Example 55, 4-{[4-methoxy-3-(pyridin-2-ylethynyl)phenyl]carbonyl}-2,3,4,5-tetrahydro-1,4-benzoxazepine] are 12 nM and 29 nM.
On the same counts, the results for `COc1ccc(C(=O)N2CCc3ccccc3CC2)cc1C#Cc1ccccn1` [Example 57, 3-{[4-methoxy-3-(pyridin-2-ylethynyl)phenyl]carbonyl}-2,3,4,5-tetrahydro-1H-3-benzazepine] are 17 nM and 15 nM.
On to `COc1ccc(C(=O)N2CCc3[nH]cnc3C2)cc1C#Cc1ccccn1` [Example 58, 5-{[4-methoxy-3-(pyridin-2-ylethynyl)phenyl]carbonyl}-4,5,6,7-tetrahydro-1H-imidazo[4,5-c]pyridine], for which the concentration for half-maximal inhibition (IC50) in experiment [1] amounted to 18 nM. Also, the Ki on rat mGluR5 receptor is 57 nM.
The like results for `COc1ccc(C(=O)N2CCCc3ccccc3C2)cc1C#Cc1ccccn1` [Example 59, 2-{[4-methoxy-3-(pyridin-2-ylethynyl)phenyl]carbonyl}-2,3,4,5-tetrahydro-1H-2-benzazepine] were, in that order, 29 nM and 42 nM.
On the same counts, the results for `O=C(c1ccc(Cl)c(C#Cc2ccccn2)c1)N1Cc2ccccc2C1` [Example 60, 2-[4-Chloro-3-(pyridin-2-ylethynyl)benzoyl]isoindoline] are 6 nM and 1 nM.
With `O=C(c1ccc(Cl)c(C#Cc2ccccn2)c1)N1CCc2ccccc2C1` [Example 61, 2-[4-Chloro-3-(pyridin-2-ylethynyl)benzoyl]-1,2,3,4-tetrahydroisoquinoline], the half-maximal inhibitory concentration (IC50) in experiment [1] was found to be 13 nM. In addition, the Ki at rat mGluR5 receptor worked out at 0.4 nM.
The like results for `O=C(c1ccc(Cl)c(C#Cc2ccccn2)c1)N1CCc2cccnc2C1` [Example 62, 7-{[4-chloro-3-(pyridin-2-ylethynyl)phenyl]carbonyl}-5,6,7,8-tetrahydro-1,7-naphthyridine] were, in that order, 9 nM and 5 nM.
The like results for `O=C(c1ccc(Cl)c(C#Cc2ccccn2)c1)N1CCc2c(F)ccc(F)c2C1` [Example 63, 2-{[4-chloro-3-(pyridin-2-ylethynyl)phenyl]carbonyl}-5,8-difluoro-1,2,3,4-tetrahydroisoquinoline] were, in that order, 14 nM and 0.2 nM.
On the same counts, the results for `O=C(c1ccc(Cl)c(C#Cc2ccccn2)c1)N1CCc2c(F)cccc2C1` [Example 64, 2-{[4-chloro-3-(pyridin-2-ylethynyl)phenyl]carbonyl}-5-fluoro-1,2,3,4-tetrahydroisoquinoline] are 16 nM and 0.4 nM.
As to `O=C(c1ccc(Cl)c(C#Cc2ccccn2)c1)N1Cc2cccnc2C1` [Example 65, 6-{[4-chloro-3-(pyridin-2-ylethynyl)phenyl]carbonyl}-6,7-dihydro-5H-pyrrolo[3,4-b]pyridine], the IC50 in experiment [1] is 18 nM. Besides, the Ki on rat mGluR5 receptor stood at 3 nM.
On the same counts, the results for `O=C(c1ccc(Cl)c(C#Cc2ccccn2)c1)N1CCc2[nH]ncc2C1` [Example 66, 5-{[4-chloro-3-(pyridin-2-ylethynyl)phenyl]carbonyl}-4,5,6,7-tetrahydro-1H-pyrazolo[4,3-c]pyridine] are 11 nM and 4 nM.
Regarding `O=C(c1ccc(Cl)c(C#Cc2ccccn2)c1)N1CCc2[nH]cnc2C1` [Example 67, 5-{[4-chloro-3-(pyridin-2-ylethynyl)phenyl]carbonyl}-4,5,6,7-tetrahydro-1H-imidazo[4,5-c]pyridine], the IC50 in experiment [1] is 27 nM. Besides, at rat mGluR5 receptor, the Ki was found to be 16 nM.
For `O=C(c1ccc(Cl)c(C#Cc2ccccn2)c1)N1CCc2ncccc2C1` [Example 68, 6-{[4-chloro-3-(pyridin-2-ylethynyl)phenyl]carbonyl}-5,6,7,8-tetrahydro-1,6-naphthyridine], in experiment [1], the IC50 came to 26 nM. For the same compound, the Ki at rat mGluR5 receptor is 4 nM.
On the same counts, the results for `O=C(c1ccc(Cl)c(C#Cc2ccccn2)c1)N1CCc2c(Cl)cccc2C1` [Example 69, 5-chloro-2-{[4-chloro-3-(pyridin-2-ylethynyl)phenyl]carbonyl}-1,2,3,4-tetrahydroisoquinoline] are 134 nM and 0.1 nM.
On the same counts, the results for `O=C(c1ccc(Cl)c(C#Cc2ccccn2)c1)N1CCc2ccc(F)cc2C1` [Example 70, 2-{[4-chloro-3-(pyridin-2-ylethynyl)phenyl]carbonyl}-7-fluoro-1,2,3,4-tetrahydroisoquinoline] are 37 nM and 0.4 nM.
`O=C(c1ccc(F)c(C#Cc2ccccn2)c1)N1CCc2ccccc2C1` [Example 71, 2-[4-Fluoro-3-(pyridin-2-ylethynyl)benzoyl]-1,2,3,4-tetrahydroisoquinoline]: in experiment [1], the IC50 worked out at 67 nM. Further, at rat mGluR5 receptor, the Ki is 5 nM.
Turning to `O=C(c1ccc(F)c(C#Cc2ccccn2)c1)N1CCc2ccc(Cl)cc2C1` [Example 72, 7-chloro-2-[4-fluoro-3-(pyridin-2-ylethynyl)benzoyl]-1,2,3,4-tetrahydroisoquinoline], the IC50 in experiment [1] stood at 29 nM. Moreover, the Ki at rat mGluR5 receptor was 2 nM.
Regarding `O=C(c1ccc(F)c(C#Cc2ccccn2)c1)N1CCc2c(Cl)cccc2C1` [Example 73, 5-chloro-2-[4-fluoro-3-(pyridin-2-ylethynyl)benzoyl]-1,2,3,4-tetrahydroisoquinoline], in experiment [1], the concentration for half-maximal inhibition (IC50) worked out at 40 nM. For the same compound, at rat mGluR5 receptor, the Ki stood at 1 nM.
The like results for `O=C(c1ccc(F)c(C#Cc2ccccn2)c1)N1Cc2ccccc2C1` [Example 74, 2-[4-fluoro-3-(pyridin-2-ylethynyl)benzoyl]isoindoline] were, in that order, 62 nM and 11 nM.
